Measurements taken from patent publication US10780092B2, “Fused pyrazine derivatives useful as soluble guanylate cyclase stimulators” (Merck Sharp & Dohme Corp., priority 2016, dated 2020).

Tests used:
sGC α1/β1 heterodimer = sGC α1/β1 heterodimer (Homo sapiens (Human), UniProt Q02108+Q02153); assay: Cell-based sGC functional assay (CASA assay), cGMP by HTRF; details: CHO-K1/sGC cells; for Emax: CHO-K1, cGMP production as percentage of maximum of compound A (set to 100%), read-out: % Activation; for EC50: inflection point of cGMP production, 4P fit, read-out: IP
Outline: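 CHO-K1 cells stably expressing human sGC α1/β1, with 0.5 mM IBMX, pre-incubated ±1 μM DETA-NO 30 min at 25° C, then compound 1 hr at 37° C (2.5% DMSO). cGMP by HTRF; activation as % of reference activator maximum, 4P fit giving inflection point and maximum […].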

[1] = system: hypoxia-induced pulmonary hypertension in rat; assay: Acute efficacy in hypoxia-induced pulmonary hypertension in rat following intratracheal (IT) administration; type: in vivo; details: decrease in SBP at dose giving decrease in PAP ≥15 mmHg
From the text: Acute Efficacy in Hypoxia-Induced Pulmonary Hypertension in Rat Following Intratracheal (IT) Administration Charles River Sprague-Dawley (CD) male rats weighing approximately 350 g were implanted with HD-S21 dual pressure telemetry transmitters (Data Sciences International (DSI)) into the pulmonary artery and femoral artery. This transmitter enables simultaneous measurement of both pulmonary and systemic hemodynamic parameters in the same animal. After a 7-10 day post-operative recovery period, animals were subjected to a normobaric hypoxic (10% oxygen) environment using a Higher Peak Mountain Air Generator (MAG-10) connected to a modified rodent cage via a fitted inlet port. Oxygen (at 10%), temperature, humidity, and CO2 were controlled within normal range and animals were maintained on a 12 hour light-dark cycle with ad libitum access to food and water. After two weeks exposure to 10% O2 hypoxic environment, systolic pulmonary arterial pressure readings increased from ˜25 mmHg to greater than 50 mmHg. Using a 48 hour baseline average, animals with readings between 50-110 mmHg (standard deviation of less than 10 mmHg) and minimal changes in systolic systemic blood pressure were enrolled for study. Animals were utilized for up to 2 studies per week for 4 weeks with a minimum of 2 days washout between doses of test agent. Compound or vehicle was administered intra-tracheally under light isoflurane anesthesia (5% in oxygen; flow rate 2.0 L/min for 3 minutes). Once anesthetized, rats were placed on an angled intubation stand in supine position and the trachea visualized using a small laryngoscope. Animals then received either 0.5 mL/kg of vehicle or 0.5 mL/kg vehicle containing compound intra-tracheally delivered via microsprayer by use of a Penn-Century Microsprayer® needle 3″ (Model IA-1B-GP) attached to a 1 mL high pressure syringe (Penn Century-Model B—SYR-PL1000) (Penn-Century, Philadelphia, Pa.). The Microsprayer® tip was inserted into the trachea up to the point at which the bend in the needle is close to the tip of the snout, which positions the tip of the Microsprayer® in front of the carina (bifurcation of trachea at the bronchi). After dose delivery the animal is placed on its back in the home cage for recovery. Hemodynamic measurements were continuously recorded and readings consolidated to hourly moving averages. Each animal received a vehicle on Day 1 followed by vehicle or test agent on Day 2. Change from vehicle baseline was calculated by subtracting the hourly Day 1 vehicle response from the hourly Day 2 response and treatment group data was expressed as mean±SEM. Decreases of systolic blood pressure (SBP) and systolic pulmonary arterial pressure (PAP) were measured at a particular IT dose (mpk milligrams per kilogram) for the following Example compounds. Compounds in the Table 13 achieved a minimum decrease in PAP of ≥15 mmHg for the corresponding decrease in SBP listed.

[2] = target: human recombinant sGC enzyme (Homo sapiens (Human), UniProt Q02108+Q02153); assay: SEC competition binding assay with [3H] Compound B radioligand; details: displacement of 1.6 nM [3H] Compound B, 24 h at 37° C.
Outline: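 Recombinant human sGC incubated with 1.6 nM [3H] Compound B and test compounds for 24 h at 37° C. Buffer: 50 mM triethanolamine pH 7.4, 3 mM MgCl2, 0.025% BSA, 2 mM DTT, 300 μM DETA/NO, 400 μM GTP, 1% DMSO. Bound ligand separated by gel filtration and counted by scintillation; non-specific binding with 1 μM Compound B; Ki from one-site fit.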

Row | SMILES | Emax (sGC α1/β1 heterodimer) [%] | EC50 (sGC α1/β1 heterodimer) [nM] | Category (decrease in SBP) ([1]; IT dose 0.03 mpk) | Ki [2] [nM] | Category (decrease in SBP) ([1]; IT dose 0.01 mpk)
1 | CC1(c2cc(O)c(Cl)cn2)C(=O)Nc2nc(-c3cn4ncnc4c(CC4CCCCC4)n3)nc(N)c21 (stereo not drawn) [Example 105-B, 4-Amino-5-(5-chloro-4-hydroxypyridin-2-yl)-2-(8-(cyclohexylmethyl)-[1,2,4]triazolo[1,5-a]pyrazin-6-yl)-5-methyl-5,7-dihydro-6H-pyrrolo[2,3-d]pyrimidin-6-one] | 108 | 138 | B (decrease in SBP 5-10 mmHg) | 0.213 | 
2 | Cc1ccc(C2(C)C(=O)Nc3nc(-c4cn5ccnc5c(Cc5cccc(F)c5)n4)nc(N)c32)cc1O (stereo not drawn) [Example 107-B, 4-Amino-2-{8-[(3-fluorophenyl)methyl]imidazo[1,2-a]pyrazin-6-yl}-5-(3-hydroxy-4-methylphenyl)-5-methyl-5,7-dihydro-6H-pyrrolo[2,3-d]pyrimidin-6-one] | 135 | 198 |  | 0.221 | A (decrease in SBP 0-5 mmHg)
3 | CC1(c2cc(O)ccn2)C(=O)Nc2nc(-c3cn4ncnc4c(CC4CCCCC4)n3)nc(N)c21 (stereo not drawn) [Example 109-A, 4-Amino-2-(8-(cyclo-hexylmethyl)-[1,2,4]-triazolo[1,5-a]pyrazin-6-yl)-5-(4-hydroxy-pyridin-2-yl)-5-methyl-5,7-dihydro-6H-pyrrolo-[2,3-d]pyrimidin-6-one] | 97 | 221 | C (decrease in SBP >10 mmHg) | 0.634 | 
